{
  "source": "patent US20150150261A1",
  "about": "“METHODS FOR APPLYING DIFORMYLUREA TO CROPS FOR GREATER PLANT PRODUCTIVITY” (Stoller Enterprises, Inc., priority 2013, published 2015)",
  "assay_type_in_all_cases": "in vivo",
  "key": {"corn seedlings [1]": {"tested_on": "corn seedlings", "assay": "Sealed barrel water use test with corn seedlings (FIG. 14)", "protocol": "It has also been discovered that crops treated with DFU require less water for growing. See the results illustrated in FIG. 14. In two barrels that were sealed at the top, a precise amount of growing medium was added with appropriate fertilizer and a precise amount of water. […] Seven corn seedlings were germinated and grown in the growing medium in each of the barrels for a period of 37 days. At 37 days the fresh weight and dry weights of corn plants were determined. The graph on the right side of […] depicts the combined weight of the water and the plants growing out of the barrels. The graph on the left depicts the average amount of water needed to grow the treated vs the untreated corn, indicating a twenty eight percent savings with the DFU-treated plants contrasted to the untreated plants. The two barrels were constantly weighed electronically."}, "corn seedlings [2]": {"tested_on": "corn seedlings", "assay": "Guttation on corn seedling leaves (FIG. 4)", "conditions": "as a function of DFU amounts", "text": "FIG. 4 illustrates the results of increased guttation on seedling leaves as a function of DFU amounts."}, "field corn": {"tested_on": "field corn", "assay": "Field corn yield, foliar DFU at V4 along with Round-Up herbicide (Table 5)", "parameters": "Yield rep1 / Yield rep2 / Yield rep3 / Yield rep4: unit not given here", "conditions": "for Yield Bu/acre: control 209", "text": "Table 5 below illustrates the effect of foliar application of DFU applied at V4 (4th leaf stage of crop growth) at either the rate of ½ pt/acre along with the herbicide Round-Up™ herbicides on field corn. Both the control and the treatments also had 0.9 lb of ammonium sulfate applied along with the herbicide and di-formylurea (DFU). The field corn was planted in southern Texas on Mar. 3, 2012, at a population density of 35,000 plants per acre. […] The large difference was in the harvestable yields of the di-formyl urea treated plants over the control which received the herbicide only."}, "corn plants [3]": {"tested_on": "corn plants", "assay": "Survival of corn plants in a flooded field (FIGS. 5-13)", "conditions": "corn field flooded by excessive rain; in furrow DFU", "text": "The method of applying DFU to crop plants, which has been covered by natural rain or other types of flooding is a distinctive enhanced feature of DFU treatment of crop plants to ameliorate damaging effects of field soil excessive moisture such as flooding. The most efficacious method of DFU treatment for this feature is that of an “in furrow” application into the open soil furrow at time of crop seed sowing with a spray of DFU at a dose of one to one and a half pints per acre over the seed and unto the soil of the open furrow before closure of the open furrow and application of pressure to the closed furrow for optimal soil contact with the seed. […] DFU is preferably sprayed at a dose of 1 pint per acre to 1½ pints per acre over the seed and onto the soil of the open furrow before closure of the open furrow and application of pressure to the closed furrow for optional soil contact with the seed. FIG. 5 is a photograph of a corn field completely flooded by excessive rain. FIGS. 6 and 7 show corn plants treated with DFU after the excessive water has retreated somewhat. The corn plants are seen to be growing. […] FIG. 9 is a photograph of a corn field which has not been treated with DFU, but after flooding, has been almost completely killed because of the water. FIG. 10 is a close-up photo of corn that has been killed because of flooding. […]"}, "soybean": {"tested_on": "soybean", "assay": "Soybean yield with DFU and Quadris fungicide (Table 3)", "text": "Table 3 below illustrates the increased performance of herbicides and fungicides for crop plants by addition of DFU to the crops. Quadris™ fungicide (product of Syngenta Crop Protection, Inc.) was applied at the R1 stage of growth and gave a yield increase of 15 bushels per acre. DFU by itself increased soybean yields by 40 bushels per acre. DFU and Quadris applied together increased the yields by 52 bushels."}, "soybean plants": {"tested_on": "soybean plants", "assay": "Soybean yield after DFU seed treatment (Table 2)", "text": "As further evidence the increase in crop production as a result of DFU treatment see Table 2 below. Untreated soybean plant yields were 52.5 bushels per acre. The DFU treated soybean plants yielded 111 bushels per acre. This represents an increase in […] of 111 percent."}, "[4]": {"tested_on": "field corn cultivar DKC 66-96", "assay": "Field corn yield, nitrogen fertilizer use efficiency (Table 4)", "text": "A total of 180 lb of nitrogen fertilizer/acre, with ½ of nitrogen applied at V4 (forth leaf) and ½ at V7 (seventh leaf) as a side dress (3 inches to the side of the plant and 3 inches below the soil surface). The field corn cultivar DKC 66-96 was planted on Feb. 11, 2013 and harvested on Jul. 12, 2013."}, "corn crop": {"tested_on": "corn crop", "assay": "Corn crop yield with DFU combined with nitrogen fertilizer", "conditions": "DFU combined with nitrogen fertilizer to the soil vs nitrogen fertilizer alone", "text": "Enhanced tissue development in DFU treated corn plants is illustrated by the experiment illustrated in FIG. 15."}, "corn plant [5]": {"tested_on": "corn plant", "assay": "Soil moisture around feeder roots of corn plants (FIGS. 2, 3)", "conditions": "DFU-treated (FIG. 3) vs untreated (FIG. 2) corn plant", "text": "FIG. 2 is a photograph of a root structure showing dry soil around the roots of a corn plant that has not been treated with DFU; FIG. 3 is a photograph of a root structure showing moist soil around the roots of a corn plant (grown under the same conditions as that of FIG. 2) treated with DFU; It has also been discovered that applying DFU to crop plants causes enhancement of crop plant cellular water and soil moisture around the feeder roots. Compare the feeder root system of FIG. 2 of a plant that has had no DFU applied to it with the feeder root system of FIG. 3 of a plant that has DFU applied to it."}, "corn plant [6]": {"tested_on": "corn plant", "assay": "Internodal stalk volume of corn plants (Table 1)", "protocol": "It has also been discovered that DFU treatment of corn plants increases the inter-nodal volume of corn plants. Table 1 below confirms that discovery where intermodal stalk volumes of untreated corn crop plants was calculated to be 311.71 cc per plant whereas the inter-nodal stalk volumes of the DFU-treated corn plant was 355.47, an increase of 14% over the control plant."}, "corn plants [7]": {"tested_on": "corn plants", "assay": "Root structure of DFU-treated vs untreated corn plants (FIG. 1)", "conditions": "treated vs untreated corn plant", "text": "FIG. 1 is a photograph illustrating root structure of two corn plants, one treated (on right) with DFU, the other untreated (on left); It has been discovered that application of DFU to growing crop plants results in a large increase in the functional capacity of the crop plant root system because of selective root tissue synthesis and development of fine small feeder roots that operate to take up water and minerals from the soil environment. Treatment of crop plant tissue described herein includes exogenous treatment of the crop plants with a DFU solution at a rate of between 0.1 to 10 pints/acre over the crop growth stages or as a preferred rate of 0.5 to 1.5 pints per acre. Preferably, the concentration of the DFU which is applied at the above rates is from stock solutions of 0.001 Molar to 1.0 Molar with a preferred Molarity of 0.001 Molar to 0.05 Molar. FIG. 1 is a photograph of two plants: the plant on the left had no treatment with DFU; the plant on the right hand side was treated with DFU. […] The treated plant on the right hand side of FIG. 1 is in contrast to the thicker deeper roots of the plant on the left hand side which has fewer “root tips” for water and nutrient uptake from the soil. The DFU treated plant on the right has smaller feeder roots for water, mineral, and nutrient uptake from the roots to the shoots."}, "[8]": {"conditions": "soybean yield, DFU 1 pt/acre, Quadris recommended rate"}, "[9]": {"conditions": "soybean, seed treatment 2 oz DFU/cwt of seed"}, "[10]": {"conditions": "field corn, seed treat 2 oz/cwt, V4 ½ pt, V9 1 pt"}},
  "note": "Entries after “also recorded” stand apart in the source; their conditions may differ.",
  "data": [
    {"smiles": "O=CNC(=O)NC=O", "note": "[DFU, diformylurea]", "values": [
      {"measurement": "savings in average amount of water needed to grow corn", "setting": "corn seedlings [1]; 0.0015% solution of DFU, 37 days, vs untreated", "value": "twenty eight"},
      {"measurement": "enhanced water use efficiency", "setting": "corn seedlings [1]; crop plants treated with DFU", "value": "up to 28%"},
      {"measurement": "guttation of water on plant leaves", "setting": "corn seedlings [2]", "value": "increases guttation"},
      {"measurement": "Yield % increase", "setting": "field corn; V4 foliar 1 pt/acre", "value": 21.5, "unit": "%"},
      {"measurement": "Yield increase bu/acre vs control", "setting": "field corn; V4 foliar 1 pt/acre", "value": 45, "unit": "bu/acre"},
      {"measurement": "Yield rep1", "setting": "field corn; V4 foliar 1 pt/acre", "value": 246},
      {"measurement": "Yield rep2", "setting": "field corn; V4 foliar 1 pt/acre", "value": 251},
      {"measurement": "Yield rep3", "setting": "field corn; V4 foliar 1 pt/acre", "value": 256},
      {"measurement": "Yield rep4", "setting": "field corn; V4 foliar 1 pt/acre", "value": 264},
      {"measurement": "Yield Bu/acre", "setting": "field corn; V4 foliar 1 pt/acre with Round-Up and ammonium sulfate", "value": 254, "unit": "Bu/acre"},
      {"measurement": "Yield % increase", "setting": "field corn; V4 foliar ½ pt/acre", "value": 13.9, "unit": "%"},
      {"measurement": "Yield increase bu/acre vs control", "setting": "field corn; V4 foliar ½ pt/acre", "value": 29, "unit": "bu/acre"},
      {"measurement": "Yield rep1", "setting": "field corn; V4 foliar ½ pt/acre", "value": 227},
      {"measurement": "Yield rep2", "setting": "field corn; V4 foliar ½ pt/acre", "value": 232},
      {"measurement": "Yield rep3", "setting": "field corn; V4 foliar ½ pt/acre", "value": 224},
      {"measurement": "Yield rep4", "setting": "field corn; V4 foliar ½ pt/acre", "value": 237},
      {"measurement": "Yield Bu/acre", "setting": "field corn; V4 foliar ½ pt/acre with Round-Up and ammonium sulfate", "value": 230, "unit": "Bu/acre"},
      {"measurement": "survival of plants in flooded field", "setting": "corn plants [3]", "value": "prevents drowning of the plants; also recorded: survived the flood"},
      {"measurement": "Soybean Yield Bu/acre", "setting": "soybean; DFU @ 1 pt/acre, Quadris @ recommended rate at R1, control 55.0", "value": 95.1, "unit": "Bu/acre"},
      {"measurement": "Rep 1", "setting": "soybean; [8]", "value": 92.7},
      {"measurement": "Rep 2", "setting": "soybean; [8]", "value": 95.8},
      {"measurement": "Rep 3", "setting": "soybean; [8]", "value": 89.9},
      {"measurement": "Rep 4", "setting": "soybean; [8]", "value": 102},
      {"measurement": "soybean yield increase", "setting": "soybean; vs control", "value": 40, "unit": "bushels per acre"},
      {"measurement": "increase in water use efficiency", "setting": "soybean plants; soybean yield vs untreated 52.5 bushels per acre", "value": 111, "unit": "%"},
      {"measurement": "Rep 1 Yield", "setting": "soybean plants; [9]", "value": 109},
      {"measurement": "Rep2 Yield", "setting": "soybean plants; [9]", "value": 112},
      {"measurement": "Rep3 Yield", "setting": "soybean plants; [9]", "value": 111},
      {"measurement": "Rep4 Yield", "setting": "soybean plants; [9]", "value": 112},
      {"measurement": "Average Yield bu per acre", "setting": "soybean plants; soybean, seed treatment 2 oz DFU/cwt of seed, control 52.5", "value": 111, "unit": "bu per acre"},
      {"measurement": "soybean plant yield", "setting": "soybean plants; untreated 52.5", "value": 111, "unit": "bushels per acre"},
      {"measurement": "Rep 1 Yield", "setting": "[4]; [10]", "value": 175.5},
      {"measurement": "Rep2 Yield", "setting": "[4]; [10]", "value": 188},
      {"measurement": "Rep3 Yield", "setting": "[4]; [10]", "value": 178.7},
      {"measurement": "Rep4 Yield", "setting": "[4]; [10]", "value": 185.1},
      {"measurement": "Average Yield bu per acre", "setting": "[4]; field corn, seed treat 2 oz/cwt, V4 ½ pt, V9 1 pt, 180 lb nitrogen fertilizer/acre, control 112.6", "value": 180.6, "unit": "bu per acre"},
      {"measurement": "increase in efficiency of use of the available nitrogen mineral fertilizer", "setting": "[4]; harvested yield vs untreated control", "value": 60.7, "unit": "%"},
      {"measurement": "yield of the corn crop", "setting": "corn crop", "value": "significantly enhances yield"},
      {"measurement": "soil moisture around the root system", "setting": "corn plant [5]", "value": "Much more moist soil"},
      {"measurement": "Internodal Volume (cc)", "setting": "corn plant [6]; Growth Stage V1", "value": 33.49, "unit": "cc"},
      {"measurement": "Internodal Volume (cc)", "setting": "corn plant [6]; Growth Stage V2", "value": 45.02, "unit": "cc"},
      {"measurement": "Internodal Volume (cc)", "setting": "corn plant [6]; Growth Stage V3", "value": 55.76, "unit": "cc"},
      {"measurement": "Internodal Volume (cc)", "setting": "corn plant [6]; Growth Stage V4", "value": 59.14, "unit": "cc"},
      {"measurement": "Internodal Volume (cc)", "setting": "corn plant [6]; Growth Stage V5", "value": 54.34, "unit": "cc"},
      {"measurement": "Internodal Volume (cc)", "setting": "corn plant [6]; Growth Stage V6", "value": 47.79, "unit": "cc"},
      {"measurement": "Internodal Volume (cc)", "setting": "corn plant [6]; Growth Stage V7", "value": 35.02, "unit": "cc"},
      {"measurement": "Internodal Volume (cc)", "setting": "corn plant [6]; Growth Stage V8", "value": 24.9, "unit": "cc"},
      {"measurement": "inter-nodal stalk volumes per plant", "setting": "corn plant [6]; calculated total, untreated 311.71", "value": 355.47, "unit": "cc per plant"},
      {"measurement": "increase of inter-nodal stalk volume over the control plant", "setting": "corn plant [6]; vs untreated corn plant", "value": 14, "unit": "%"},
      {"measurement": "fine small feeder root system development", "setting": "corn plants [7]", "value": "significantly greater fine small feeder root system development"}
    ]}
  ]
}
